Laboratory results from patent publication US20120277265A1, “NOVEL POLYQUINOLINE DERIVATIVES AND THE THERAPEUTIC USE THEREOF” (CENTRE NATIONAL DE LA RECHERCHE SCIENTIFIQUE (C.N.R.S.), priority 2005, published 2012).

Legend:
[1] = 25° C., cited from earlier work; for log K1 (stability constant for the MLc species), Zn(II): ionic strength 0.1-0.2, metal ion to chelator 1/1
[2] = Stability constants of competing chelators for Zn(II) (NIST / Sillen-Martell; log Kapp by Eq. 1-2); settings: at pH = 7.4, by Eq. 1 and 2
Source text: log Kapp=log K-log α (Eq. 1)
α=[H^+]^n/(Ka1×Ka2×Ka3× . . . Kan)+[H^+]^n-1/(Ka1×Ka2×Ka3× . . . Kan-1)+ . . . +[H^+]/Ka1+1 (Eq. 2)

| Structure (SMILES) | log K1 (stability constant for the MLc species), Zn(II) [1] | log K2 (stability constant for the M(Lc)2 species), Zn(II) ([1]; ionic strength 0.1-0.2) | log K1 app, Zn(II) [2] |
| --- | --- | --- | --- |
| O=C(O)CN(CC(=O)O)CC(=O)O [NTA, nitrilotriacetic acid] | 10.5 | 3.8 | 8.0 |
| NCCNCCNCCN [Trien, triethylenetetramine] | 11.9 | – | 7.8 |
